{"source": "patent US20070249701A1", "about": "“Cyclic amine CCR5 receptor antagonists” (TEIJIN LIMITED, priority 1999, published 2007)", "biological_target": "T1, human CCR5 (Homo sapiens, UniProt P51681)", "T1 construct": "expressed in transfected cells; host or cells: CHO cells", "T1 sequence (P51681 whole entry)": "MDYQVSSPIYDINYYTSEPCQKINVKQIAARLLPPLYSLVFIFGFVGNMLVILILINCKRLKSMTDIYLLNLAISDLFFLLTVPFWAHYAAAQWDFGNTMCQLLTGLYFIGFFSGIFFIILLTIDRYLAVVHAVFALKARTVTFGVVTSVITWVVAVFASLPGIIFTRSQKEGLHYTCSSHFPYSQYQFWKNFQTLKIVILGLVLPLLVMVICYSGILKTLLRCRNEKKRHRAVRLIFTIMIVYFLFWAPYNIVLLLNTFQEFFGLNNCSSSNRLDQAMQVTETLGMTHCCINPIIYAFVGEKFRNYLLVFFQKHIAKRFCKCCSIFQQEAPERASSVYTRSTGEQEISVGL", "assay": "Inhibition of binding of [125I]-labeled MIP-1β to membrane fraction of CHO cells expressing human CCR5", "details": "at a concentration of 10 μM, [125I]-MIP-1β 0.1 to 0.5 nM, read-out: inhibitory activity against binding of human MIP-1β to the membrane fraction of the cells expressing CCR5, Inhibition(%)", "protocol": "Measurement of Inhibitory Activity of a Compound Against Binding of [^125I]-Labeled MIP-1β to Membrane Fraction of the Cells Expressing CCR5\nTo a 96-well plate made of polystyrene, were respectively added 20 μL of a solution prepared by diluting each test compound with an assay buffer (50 mM HEPES, pH 7.4, 5 mM MgCl2, 1 mM CaCl2, 0.2% BSA), 25 μL of a solution obtained by diluting [^125I]-labeled MIP-1β (NEN Life Science Products, Inc.) with the assay buffer so as to provide 0.1 to 0.5 nM and 155 μL (including 4 μg of the membrane fraction) of a suspension prepared by suspending a membrane fraction of CHO cells expressing human CCR5 (the final volume of the reaction solution: 200 μL). […]\nAfter completing the reaction, the reaction suspension was filtered through Filtermate (Packard Instrument Co.), and the filter washed with 250 μL of a precooled washing buffer (10 mM HEPES, pH 7.4, 0.5 M NaCl) nine times. […] The radioactivity was counted using TopCount NXT (Packard Instrument Co.).\nThe count when 0.2 μM of human MIP-1α instead of the test compound was added was subtracted as nonspecific binding, and the count when the test compound was not added was taken as 100%. Thereby, the inhibitory activity of the test compound against binding of the human MIP-1β to the membrane fraction of the cells expressing CCR5 was calculated. […]", "data": [{"smiles": "O=C(CNC(=O)c1cccc(SC(F)(F)F)c1)N[C@@H]1CCN(Cc2ccc(Cl)cc2)C1", "note": "[Compd. No. 1606, (R)-1-(4-chlorobenzyl)-3-[{N-(3-(trifluoromethylthio)benzoyl)glycyl}amino]pyrrolidine]", "values": [{"measurement": "inhibition at 10 µM", "value": "20 to 50", "unit": "%"}]}]}
